From patent US11690824B2, “Antibacterial compounds” (THE GENERAL HOSPITAL CORPORATION, priority 2018, dated 2023)
Values after ≈ are worked out from the molar mass of the structure shown. Read-outs that look alike come from different tables or passages of the source.

Assays:
S. aureus (MRSA) MW2 = experiment: Minimal inhibitory concentration (MIC) assay, micro-dilution; assay type: cell-based; details: for MIC: Example 5, MRSA MW2
Outline: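 Strains were grown at 37° C (S. aureus in TSB, E. faecium in BHI broth). MICs were then determined by standard CLSI broth micro-dilution. Each assay was repeated in biological triplicate.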

MRSA MW2 = experiment: SYTOX Green membrane permeability assay; assay type: cell-based, S. aureus
Description: SYTOX Green membrane permeability assay. […] The washed cells were adjusted to OD600=0.4 with PBS. SYTOX Green (Molecular Probes, Waltham, Mass., USA) was added to 10 mL of the diluted bacterial suspension to a final concentration of 5 μM and incubated for 30 min at room temperature in the dark. 50 μL of the bacteria/SYTOX Green suspension was mixed with 50 μl of PBS containing twice the desired concentrations of compounds in black, clear-bottom, 96-well plates (Corning no. 3904). Fluorescence was measured at room temperature using a spectrophotometer (SpectraMax M2, Molecular Devices), with excitation and emission wavelengths of 485 nm and 525 nm, respectively. All experiments were conducted in biological triplicate.

human erythrocytes = experiment: Human blood hemolysis; assay type: cell-based; details: 32 μg/ml
Description: Human blood hemolysis. Hemolytic activity was evaluated as described in a previous study. Briefly, 100 μL of 4% human erythrocytes (Rockland Immunochemicals, Limerick, Pa., USA) was added to 100 μL of 2-fold serial dilutions of compounds in PBS, 0.2% DMSO (negative control), or 2% Triton-X 100 (positive control) in a 96-well plate. The 96-well plate was incubated at 37° C. for 1 h and then centrifuged at 500× g for 5 min. 50 μL of the supernatant was transferred to a fresh 96-well plate, and absorbance of supernatants was measured at 540 nm. Percent hemolysis was calculated using the following equation: (A540 nm of compound treated sample−A540 nm of 0.1% DMSO treated sample)/(A540 nm of 1% Triton X-100 treated sample−A540 nm of 0.1% DMSO treated sample)×100. HC50 (concentration of a compound causing 50% hemolysis) was determined using SigmaPlot 10.0 (Systat Software Inc., San Jose, Calif., USA).

HKC-8 = experiment: Cytotoxicity (WST-1); assay type: cell-based; details: 32 μg/ml
Description: (§1) Cytotoxicity. […] HepG2 and HKC-8 cells were grown in Dulbecco's modified Eagle F-12 media mixed 1:1 with Ham's F-12 (DMEM/F-12, Life Technologies, Carlsbad, Calif., USA) supplemented with 10% FBS and 4 mM L-glutamine at 37° C. in 5% CO2. For cytotoxicity assays, HepG2 or HKC-8 was cultured in 96-well plates in 100 μL/well of the proper media to reach 70-80% confluence. The cells were then treated with a range of concentrations of nTZDpa or its analogs for 72 h. 10 μL of WST-1 (Roche, Mannheim, Germany) was added per well for the last 4 h of the 72 h period. WST-1 reduction was measured at absorbance 450 nm. The percent […] relative to that of the no-treatment control was calculated. The assay was carried out in biological triplicate.

HepG2 = experiment: Cytotoxicity (WST-1); assay type: cell-based; details: 32 μg/ml
Description: as §1

MIC (S. aureus (MRSA) MW2; Staphylococcus aureus, read-out: MIC) | MIC (S. aureus (MRSA) MW2) | SMILES | antibiotic activity / potency relative to nTZDpa (S. aureus (MRSA) MW2; growing S. aureus cells) | concentration inducing SYTOX Green fluorescence (MRSA MW2) | hemolysis of human erythrocytes (human erythrocytes) | cell death of HKC-8 (HKC-8) | cell death of HepG2 (HepG2)
32 µg/mL (≈ 91.4 µM) |  | COc1c(C(=O)O)n(Cc2ccc(Cl)cc2)c2ccc(Cl)cc12 [Compound S14, 5-chloro-1-(4-chlorobenzyl)-3-methoxy-1H-indole-2-carboxylic acid] | reduction of antibiotic activity | 64 µg/mL |  |  | 
 | same MIC | O=C(O)c1c(Sc2ccccc2)c2ccc(Cl)cc2n1Cc1ccc(Cl)cc1 [Analog 2a] |  |  | did not significantly cause hemolysis | did not display a significant level of cytotoxicity | did not display a significant level of cytotoxicity
